The data set in a line: solubility of sunitinib base (applicants' observation). The class given is physicochemical. The note with it: qualitative; dissolution in solvents for salt preparation. The text has this: In this regard, the low solubility of sunitinib base requires large amounts of solvents or mixture of solvents and/or the use of particular harsh conditions aimed to increase the solubility of sunitinib base and/or reduce long reaction times, which represents a significant drawback, especially for industrial scale-up. Further, solid sunitinib base is difficult to handle since it is a very fine powder which is difficult to filter and isolate.

The values that follow come from patent US8153678B2, “Process for preparing A 3-pyrrole substituted 2-indolinone malate salt” (Medichem, S.A., priority 2008, dated 2012).

Each structure is given as a SMILES string.

Consider `CCN(CC)CCNC(=O)c1c(C)[nH]c(/C=C2\C(=O)Nc3ccc(F)cc32)c1C` [sunitinib base, N-[2-(diethylamino)ethyl]-5-[(Z)-(5-fluoro-1,2-dihydro-2-oxo-3H-indol-3-yliden)methyl]-2,4-dimethyl-1H-pyrrole-3-carboxamide], for which the solubility profile entry is listed as “low solubility profile”.
